Columns and labels:
[1] = system: acute paranoid schizophrenia; settings: after 2 weeks; cited from earlier work
[2] = system: human patient having a remote head injury, s/p 4 craniotomies and intractable seizures; assay: Example 7: topical cannabidiol 40 mg at the BONATH, intractable seizures, EEG; assay type: in vivo; settings: 25 mg milnacipran topical nuchal after cannabidiol 40 mg
Protocol: The efficacy of a topical cannabidiol formulation was studied in a human patient having a remote head injury, s/p 4 craniotomies and intractable seizures. The patient was treated with cannabidiol 40 mg applied to the BONATH in a topical formulation. There was attenuation of associated focal EEG abnormalities.

SMILES | psychotic symptoms [1] | EEG after further topical nuchal treatment [2]
CCN1CCCC1CNC(=O)c1cc(S(=O)(=O)CC)c(N)cc1OC (centres unmarked) [amisulpride] | significant decrease in psychotic symptoms | –
CCN(CC)C(=O)C1(c2ccccc2)CC1CN (centres unmarked) [milnacipran] | – | further attenuated
